Experimental findings from patent US8202873B2, “2-[4-(pyrazol-4-ylalkyl)piperazin-1-yl]-3-phenyl pyrazines as 5-HT7 receptor antagonists” (Eli Lilly and Company, priority 2007, dated 2012) are described below.

Several values for one entry are separate records, joined by “and”; a condition that tells them apart may be missing. Equal entries are not always repeated.

In one assay the target is T1, 5-HT1B (Homo sapiens, UniProt P28222).
T1 construct: expressed in transfected cells
The assay is described as follows: Radioligand receptor binding assay, 5-HT1B. On the procedure: (§1) [^3H] […] The reactions are incubated at room temperature for 3 hr. and then counted in a Trilux Microbeta™ scintillation counter to detect receptor-bound radioligand. Binding data is analyzed by computer-assisted 4 parameter fit analysis (ID Business Solutions Ltd, Guildford, Surrey, UK). […]
(§2) Affinity for other serotonin receptor subtypes as well as for alpha 1 & 2 adrenergic receptors can readily be determined by modification of the above described radioligand receptor binding assay using membranes derived from cells stably expressing the desired receptor subtype including the 5-HT1A, 5-HT1B, and 5-HT1D subtypes, as well as the 5-HT2A, 5-HT2B, 5-HT2C, 5-HT4, 5-HT5, and 5-HT6 receptor subtypes. […] The binding affinities of compounds of the present invention may be determined at these additional receptor types and are found to generally have selectivity ratios ≧2.0 against other serotonergic receptors. […]

A further assay addresses T2, 5-HT7 receptor (Homo sapiens, UniProt P34969).
T2 construct: expressed in transfected cells; host or cells: AV-12 cells
Put plainly: 5-HT7 receptor affinity: radioligand binding assay ([3H]5-HT, SPA). The settings on record: [3H]5-HT competition binding. The protocol:
Membranes for affinity and antagonist activity assays are prepared essentially as follows. AV-12 cells, stably expressing the 5-HT7 receptor, are grown as a monolayer in 5×T-150 flasks in DMEM/F12 (3:1) 5% FBS, 20 mM HEPES, […], […]. After growing to 90% confluence the media is removed and replaced with Hybritech media containing 2% horse serum, […] dextran sulfate, 1 mg/mL nucellin, 1 mg/mL human transferrin (partially iron saturated), […], 20 mM HEPES, […] geneticin, 0.04% pluronic F68. The cells are grown overnight to condition the media. The next morning the conditioned media (˜150 mL total) is removed and set aside in a sterile container. The cells are trypsinized and collected in the conditioned media. Fresh suspension media is added to bring the total volume to 500 mL and a cell density of 5×10^5 cells/mL. […]
To prepare membranes, the above pellets are resuspended in ice-cold Tris buffer (20 mM Tris HCl, pH 7.4 at 23° C., 5 mM EDTA) and homogenized with a Wheaton tissue grinder. […] Protein concentrations are determined by the method of Bradford. […]
as §1

The target in another assay is T3, 5-HT1D (Homo sapiens, UniProt P28221).
T3 construct: expressed in transfected cells
T3 sequence (P28221 whole entry, species assumed): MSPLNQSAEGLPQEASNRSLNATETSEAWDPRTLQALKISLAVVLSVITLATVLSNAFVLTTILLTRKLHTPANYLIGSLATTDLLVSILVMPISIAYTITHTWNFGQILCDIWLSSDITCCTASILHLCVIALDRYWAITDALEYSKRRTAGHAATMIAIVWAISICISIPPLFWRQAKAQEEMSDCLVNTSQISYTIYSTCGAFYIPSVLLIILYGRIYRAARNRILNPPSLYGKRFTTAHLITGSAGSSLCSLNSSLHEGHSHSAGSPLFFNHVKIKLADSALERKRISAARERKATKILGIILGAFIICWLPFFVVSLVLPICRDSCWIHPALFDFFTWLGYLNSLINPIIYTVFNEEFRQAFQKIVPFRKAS
The assay is described as follows: Radioligand receptor binding assay, 5-HT1D. On the procedure:
as §1, §2

Another assay concerns the target T4, 5-HT5 (Homo sapiens, UniProt P47898).
T4 construct: expressed in transfected cells
The assay is described as follows: Radioligand receptor binding assay, 5-HT5. The protocol:
as §1, §2

Assay [1] concerns the target T5, alpha 1 adrenergic.
T5 construct: Ki; other: alpha 1 adrenergic (second line, r13)
The assay is described as follows: Radioligand receptor binding assay, alpha 1 adrenergic (second line). The following applies: alpha 1 adrenergic (second line, r13). On the procedure:
as §1, §2

Another assay concerns the target T6, 5-HT2B (Homo sapiens, UniProt P41595).
T6 construct: expressed in transfected cells
Put plainly: Radioligand receptor binding assay, 5-HT2B. The protocol:
as §1, §2

Another assay deals with T7, 5-HT4 (Homo sapiens, UniProt Q13639).
T7 construct: expressed in transfected cells
T7 sequence (Q13639 whole entry, species assumed): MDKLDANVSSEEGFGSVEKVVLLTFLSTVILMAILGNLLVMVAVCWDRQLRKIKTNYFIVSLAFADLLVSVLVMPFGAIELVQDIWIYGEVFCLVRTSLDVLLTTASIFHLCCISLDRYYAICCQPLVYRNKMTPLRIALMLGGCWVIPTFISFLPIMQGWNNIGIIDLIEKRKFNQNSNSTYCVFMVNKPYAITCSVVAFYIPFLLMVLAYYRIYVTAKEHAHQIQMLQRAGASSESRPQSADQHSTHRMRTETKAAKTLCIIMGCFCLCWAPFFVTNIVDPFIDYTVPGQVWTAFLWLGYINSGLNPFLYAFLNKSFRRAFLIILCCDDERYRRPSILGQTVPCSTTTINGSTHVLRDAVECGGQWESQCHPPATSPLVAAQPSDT
Put plainly: Radioligand receptor binding assay, 5-HT4. On the procedure:
as §1, §2

For another assay, the target named is T8, 5-HT6 (Homo sapiens, UniProt P50406).
T8 construct: expressed in transfected cells
T8 sequence (P50406 whole entry, species assumed): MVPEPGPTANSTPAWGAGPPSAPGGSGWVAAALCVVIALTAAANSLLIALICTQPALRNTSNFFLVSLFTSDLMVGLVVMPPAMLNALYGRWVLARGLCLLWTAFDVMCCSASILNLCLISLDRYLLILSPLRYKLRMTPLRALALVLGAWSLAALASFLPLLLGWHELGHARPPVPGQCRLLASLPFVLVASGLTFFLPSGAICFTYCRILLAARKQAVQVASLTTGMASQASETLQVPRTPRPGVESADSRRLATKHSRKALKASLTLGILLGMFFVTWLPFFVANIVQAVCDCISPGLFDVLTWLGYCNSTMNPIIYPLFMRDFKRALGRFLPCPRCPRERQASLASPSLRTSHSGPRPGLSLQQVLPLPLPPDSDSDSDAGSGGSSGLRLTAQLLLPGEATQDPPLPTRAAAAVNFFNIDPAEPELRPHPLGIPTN
Put plainly: Radioligand receptor binding assay, 5-HT6. On the procedure: as §1, §2

Another assay concerns the target T9, 5-HT2C (Homo sapiens, UniProt P28335).
T9 construct: expressed in transfected cells
T9 sequence (P28335 33-458): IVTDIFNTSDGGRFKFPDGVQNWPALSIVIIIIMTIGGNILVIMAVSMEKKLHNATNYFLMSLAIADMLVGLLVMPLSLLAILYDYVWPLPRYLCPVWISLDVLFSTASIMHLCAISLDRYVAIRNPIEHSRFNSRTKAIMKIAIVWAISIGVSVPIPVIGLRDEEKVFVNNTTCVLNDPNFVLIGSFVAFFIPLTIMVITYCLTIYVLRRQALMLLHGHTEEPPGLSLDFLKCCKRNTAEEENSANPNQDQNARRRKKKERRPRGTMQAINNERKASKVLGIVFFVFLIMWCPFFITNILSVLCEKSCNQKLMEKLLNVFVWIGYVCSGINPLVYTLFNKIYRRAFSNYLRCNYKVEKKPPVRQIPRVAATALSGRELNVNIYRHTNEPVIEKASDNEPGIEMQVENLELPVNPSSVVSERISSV
Put plainly: Radioligand receptor binding assay, 5-HT2C. The protocol:
as §1, §2

The target in assay [2] is T10, alpha 1 adrenergic.
T10 construct: Ki; other: alpha 1 adrenergic (first line, r12)
Put plainly: Radioligand receptor binding assay, alpha 1 adrenergic (first line). The settings on record: alpha 1 adrenergic (first line, r12). On the procedure: as §1, §2

Another assay addresses T11, 5-HT1A (Homo sapiens, UniProt P08908).
T11 construct: expressed in transfected cells
T11 sequence (P08908 1-422): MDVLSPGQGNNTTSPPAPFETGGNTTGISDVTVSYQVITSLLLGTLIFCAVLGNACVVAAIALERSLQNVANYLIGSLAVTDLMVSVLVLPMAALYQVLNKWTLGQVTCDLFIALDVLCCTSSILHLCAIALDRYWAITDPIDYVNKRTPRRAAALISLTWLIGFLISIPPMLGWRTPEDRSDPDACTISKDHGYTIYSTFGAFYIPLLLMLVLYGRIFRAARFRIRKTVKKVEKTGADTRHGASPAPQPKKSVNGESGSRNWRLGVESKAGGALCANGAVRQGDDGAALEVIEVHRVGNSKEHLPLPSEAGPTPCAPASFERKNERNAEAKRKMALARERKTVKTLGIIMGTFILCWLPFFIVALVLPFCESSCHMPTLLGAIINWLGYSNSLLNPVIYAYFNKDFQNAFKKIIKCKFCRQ
The assay is described as follows: Radioligand receptor binding assay, 5-HT1A. On the procedure:
as §1, §2

Another assay has as its target T12, 5-HT2A (Homo sapiens, UniProt P28223).
T12 construct: expressed in transfected cells
Put plainly: Radioligand receptor binding assay, 5-HT2A. The protocol:
as §1, §2

T2 sequence (P34969 whole entry): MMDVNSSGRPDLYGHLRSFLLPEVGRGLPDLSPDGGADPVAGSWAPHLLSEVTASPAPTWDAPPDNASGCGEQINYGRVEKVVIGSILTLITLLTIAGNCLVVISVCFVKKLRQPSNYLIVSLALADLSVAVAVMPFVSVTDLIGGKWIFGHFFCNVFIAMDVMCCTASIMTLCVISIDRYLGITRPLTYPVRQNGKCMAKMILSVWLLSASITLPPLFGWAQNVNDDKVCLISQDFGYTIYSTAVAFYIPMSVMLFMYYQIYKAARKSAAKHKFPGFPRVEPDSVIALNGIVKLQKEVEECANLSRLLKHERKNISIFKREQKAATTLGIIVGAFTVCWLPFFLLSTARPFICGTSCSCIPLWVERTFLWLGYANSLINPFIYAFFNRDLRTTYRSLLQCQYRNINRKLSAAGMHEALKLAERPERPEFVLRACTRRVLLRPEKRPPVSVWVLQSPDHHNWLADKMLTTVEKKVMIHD
T12 sequence (P28223 whole entry, species assumed): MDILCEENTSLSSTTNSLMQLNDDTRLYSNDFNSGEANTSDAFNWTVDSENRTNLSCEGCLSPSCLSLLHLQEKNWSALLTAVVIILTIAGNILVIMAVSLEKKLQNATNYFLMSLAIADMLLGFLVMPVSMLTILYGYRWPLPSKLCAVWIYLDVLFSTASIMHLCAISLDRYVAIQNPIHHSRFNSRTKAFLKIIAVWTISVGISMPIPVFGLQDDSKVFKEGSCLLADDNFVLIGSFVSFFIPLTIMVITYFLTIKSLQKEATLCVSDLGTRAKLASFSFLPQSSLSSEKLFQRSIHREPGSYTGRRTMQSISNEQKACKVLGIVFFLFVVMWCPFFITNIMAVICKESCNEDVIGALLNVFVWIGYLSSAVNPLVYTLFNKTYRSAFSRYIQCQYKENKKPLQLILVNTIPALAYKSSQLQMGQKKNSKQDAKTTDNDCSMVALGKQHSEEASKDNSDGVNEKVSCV
T6 sequence (P41595 whole entry, species assumed): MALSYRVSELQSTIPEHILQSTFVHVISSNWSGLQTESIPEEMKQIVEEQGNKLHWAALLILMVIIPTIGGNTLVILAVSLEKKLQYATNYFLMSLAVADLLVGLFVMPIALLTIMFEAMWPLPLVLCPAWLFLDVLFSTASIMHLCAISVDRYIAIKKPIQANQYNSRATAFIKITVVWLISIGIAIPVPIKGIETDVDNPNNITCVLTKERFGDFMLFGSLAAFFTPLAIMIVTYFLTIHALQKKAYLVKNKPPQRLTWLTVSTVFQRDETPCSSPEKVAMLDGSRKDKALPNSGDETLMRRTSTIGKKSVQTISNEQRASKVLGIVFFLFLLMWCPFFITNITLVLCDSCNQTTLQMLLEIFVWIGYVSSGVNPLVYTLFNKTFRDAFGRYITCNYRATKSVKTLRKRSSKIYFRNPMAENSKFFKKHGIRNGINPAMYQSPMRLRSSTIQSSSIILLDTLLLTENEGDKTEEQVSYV
T1 sequence (P28222 whole entry, species assumed): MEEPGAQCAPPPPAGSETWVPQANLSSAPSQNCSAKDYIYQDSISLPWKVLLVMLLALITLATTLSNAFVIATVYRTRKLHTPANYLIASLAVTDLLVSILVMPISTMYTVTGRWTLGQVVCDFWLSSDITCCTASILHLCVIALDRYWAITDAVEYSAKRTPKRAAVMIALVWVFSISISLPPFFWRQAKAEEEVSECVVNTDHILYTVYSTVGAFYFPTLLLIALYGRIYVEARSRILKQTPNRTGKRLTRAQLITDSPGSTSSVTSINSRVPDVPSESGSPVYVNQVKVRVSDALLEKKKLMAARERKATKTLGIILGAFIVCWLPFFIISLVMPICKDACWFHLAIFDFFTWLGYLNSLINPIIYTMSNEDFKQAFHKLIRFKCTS
T4 sequence (P47898 whole entry, species assumed): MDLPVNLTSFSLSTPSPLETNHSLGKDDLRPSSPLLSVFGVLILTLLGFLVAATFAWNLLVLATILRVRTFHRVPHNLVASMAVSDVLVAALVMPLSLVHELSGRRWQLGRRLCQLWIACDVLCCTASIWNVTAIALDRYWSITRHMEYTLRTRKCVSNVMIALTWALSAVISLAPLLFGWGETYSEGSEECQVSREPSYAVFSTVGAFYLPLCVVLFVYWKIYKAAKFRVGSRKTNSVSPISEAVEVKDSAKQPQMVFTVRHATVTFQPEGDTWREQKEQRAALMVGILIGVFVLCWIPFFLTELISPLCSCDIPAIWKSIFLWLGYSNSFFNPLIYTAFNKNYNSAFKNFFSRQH

On to `Cn1cc(CN2CCN(c3nccnc3-c3cccc(F)c3F)CC2)cn1` [Example 142, 4-(1-Methyl-1H-pyrazol-4-ylmethyl)-3′-(2,3-difluorophenyl)-3,4,5,6-tetrahydro-2H-[1,2′]bipyrazine], for which the Ki – broadly, the dissociation constant of the complex between target and ligand, obtained from inhibition or displacement – at 5-HT1B is above 3.58 µM; on 5-HT7 receptor, ~0.044 µM and 0.044 µM; on 5-HT1D it was above 2.4 µM; on 5-HT5 it was above 7.02 µM; at alpha 1 adrenergic [1], 0.933 µM; at 5-HT2B, above 3.16 µM. The Ki is above 6.31 µM on 5-HT4; above 1.79 µM on 5-HT6; above 8.2 µM at 5-HT2C; above 1.44 µM on alpha 1 adrenergic [2]; 1.25 µM on 5-HT1A; above 7.47 µM on 5-HT2A.
